These are literature values, as cited in patent US20150104527A1, “AQUEOUS IONIC SOLUTION CONTAINING SEAWATER AND AT LEAST ONE COMPOUND THAT IS ORIGINALLY IMMISCIBLE WITH SEA WATER” (LABORATOIRE DE LA MER, priority 2011, published 2015).

The subject of one series is human neutrophiles. The note with it: even at low concentration; Boston et al, 2003.
For a further series, the system named is nasal mucus membrane. The note with it: observed in patients even for short use; Graf P et al, 1999.

On to benzalkonium chloride, for which the “toxicity for human neutrophiles” value with human neutrophiles is reported as “toxic”. Also, the “effect on the nasal mucus membrane” value in the series on nasal mucus membrane is on record as “deleterious effects”.
